Data published in ChEMBL document CHEMBL4610038, “The synthesis of trifluoromethylated N-nitroaryl-2-amino-1,3-dichloropropane derivatives and their evaluation as potential anti-cancer agents” (Bioorg Med Chem Lett, 2020).

Columns and labels:
T47D [1] = assay: Cytotoxicity against human T47D cells assessed as reduction in cell viability; format: functional, cell-based
MDA-MB-231 [2] = assay: Cytotoxicity against human MDA-MB-231 cells assessed as cell viability at 100 uM relative to control; format: functional; settings: read-out: Activity
Caco-2 [3] = assay: Cytotoxicity against human Caco2 cells assessed as cell viability at 100 uM relative to control; format: functional; settings: read-out: Activity
HCT-116 [4] = assay: Cytotoxicity against human HCT116 cells assessed as cell viability at 100 uM relative to control; format: functional; settings: read-out: Activity
A549 [5] = assay: Cytotoxicity against human A549 cells assessed as cell viability at 100 uM relative to control; format: functional; settings: read-out: Activity
HT-29 [6] = assay: Cytotoxicity against human HT-29 cells assessed as reduction in cell viability; format: functional, cell-based
HCT-116 [7] = assay: Cytotoxicity against human HCT116 cells assessed as reduction in cell viability; format: functional, cell-based
SUNE1 [8] = assay: Cytotoxicity against human SUNE1 cells assessed as cell viability at 100 uM relative to control; format: functional; settings: read-out: Activity
BXPC-3 [9] = assay: Cytotoxicity against human BxPC3 cells assessed as cell viability at 100 uM relative to control; format: functional; settings: read-out: Activity
MCF-10A = assay: Cytotoxicity against human MCF10A cells assessed as reduction in cell viability; format: cell-based
[10] = Cytotoxicity against human HK1 cells assessed as cell viability at 100 uM relative to control; format: functional; settings: HK-1, read-out: Activity
SH-SY5Y [11] = assay: Cytotoxicity against human SH-SY5Y cells assessed as reduction in cell viability; format: functional, cell-based
BXPC-3 [12] = assay: Cytotoxicity against human BxPC3 cells assessed as reduction in cell viability; format: functional, cell-based
Caco-2 [13] = assay: Cytotoxicity against human Caco2 cells assessed as reduction in cell viability; format: functional, cell-based
MDA-MB-468 [14] = assay: Cytotoxicity against human MDA-MB-468 cells assessed as reduction in cell viability; format: functional, cell-based
MDA-MB-231 [15] = assay: Cytotoxicity against human MDA-MB-231 cells assessed as reduction in cell viability; format: functional, cell-based
MCF7 [16] = assay: Cytotoxicity against human MCF7 cells assessed as cell viability at 100 uM relative to control; format: functional; settings: read-out: Activity
SW1990 [17] = assay: Cytotoxicity against human SW1990 cells assessed as cell viability at 100 uM relative to control; format: functional; settings: read-out: Activity
[18] = Cytotoxicity against human MCF10A cells assessed as cell viability at 100 uM relative to control; format: cell-based, MCF-10A; settings: read-out: Activity
SUNE1 [19] = assay: Cytotoxicity against human SUNE1 cells assessed as reduction in cell viability; format: functional, cell-based
SW1990 [20] = assay: Cytotoxicity against human SW1990 cells assessed as reduction in cell viability; format: functional, cell-based
A549 [21] = assay: Cytotoxicity against human A549 cells assessed as reduction in cell viability; format: functional, cell-based
CNE [22] = assay: Cytotoxicity against human CNE1 cells assessed as cell viability at 100 uM relative to control; format: functional; settings: read-out: Activity
[23] = Cytotoxicity against human HK1 cells assessed as reduction in cell viability; format: functional, cell-based; settings: HK-1
ASPC1 [24] = assay: Cytotoxicity against human AsPC1 cells assessed as cell viability at 100 uM relative to control; format: functional; settings: read-out: Activity
MDA-MB-468 [25] = assay: Cytotoxicity against human MDA-MB-468 cells assessed as cell viability at 100 uM relative to control; format: functional; settings: read-out: Activity
SH-SY5Y [26] = assay: Cytotoxicity against human SH-SY5Y cells assessed as cell viability at 100 uM relative to control; format: functional; settings: read-out: Activity
T47D [27] = assay: Cytotoxicity against human T47D cells assessed as cell viability at 100 uM relative to control; format: functional; settings: read-out: Activity
HT-29 [28] = assay: Cytotoxicity against human HT-29 cells assessed as cell viability at 100 uM relative to control; format: functional; settings: read-out: Activity
SW48 [29] = assay: Cytotoxicity against human SW48 cells assessed as cell viability at 100 uM relative to control; format: functional; settings: read-out: Activity
NCI-H1299 [30] = assay: Cytotoxicity against human H1299 cells assessed as reduction in cell viability; format: functional, cell-based
CNE [31] = assay: Cytotoxicity against human CNE1 cells assessed as reduction in cell viability; format: functional, cell-based
SW48 [32] = assay: Cytotoxicity against human SW48 cells assessed as reduction in cell viability; format: functional, cell-based
SK-BR-3 [33] = assay: Cytotoxicity against human SKBR3 cells assessed as cell viability at 100 uM relative to control; format: functional; settings: read-out: Activity
ASPC1 [34] = assay: Cytotoxicity against human AsPC1 cells assessed as reduction in cell viability; format: functional, cell-based
MRC5 = assay: Cytotoxicity against human MRC5 cells assessed as reduction in cell viability; format: cell-based
SK-BR-3 [35] = assay: Cytotoxicity against human SKBR3 cells assessed as reduction in cell viability; format: functional, cell-based
MCF7 [36] = assay: Cytotoxicity against human MCF7 cells assessed as reduction in cell viability; format: functional, cell-based
[37] = Cytotoxicity against human MRC5 cells assessed as cell viability at 100 uM relative to control; format: cell-based; settings: read-out: Activity
NCI-H1299 [38] = assay: Cytotoxicity against human H1299 cells assessed as cell viability at 100 uM relative to control; format: functional; settings: read-out: Activity

Structure (SMILES)	IC50 (T47D [1])	viability at 100 µM (MDA-MB-231 [2])	viability at 100 µM (Caco-2 [3])	viability at 100 µM (HCT-116 [4])	viability at 100 µM (A549 [5])	IC50 (HT-29 [6])	IC50 (HCT-116 [7])	viability at 100 µM (SUNE1 [8])	viability at 100 µM (BXPC-3 [9])	IC50 (MCF-10A)	viability at 100 µM [10]	IC50 (SH-SY5Y [11])	IC50 (BXPC-3 [12])	IC50 (Caco-2 [13])	IC50 (MDA-MB-468 [14])	IC50 (MDA-MB-231 [15])	viability at 100 µM (MCF7 [16])	viability at 100 µM (SW1990 [17])	viability at 100 µM [18]	IC50 (SUNE1 [19])	other results
O=[N+]([O-])c1ccc(NC(CO)CO)cc1	> 100 µM	87.7%	101%	89.7%	96.7%	> 100 µM	> 100 µM	109%	100%	> 100 µM	99.6%	> 100 µM	> 100 µM	> 100 µM	> 100 µM	> 100 µM	65.6%	87.5%	103%	> 100 µM	IC50 (SW1990 [20]): > 100 µM; IC50 (A549 [21]): > 100 µM; viability at 100 µM (CNE [22]): 104%; IC50 [23]: > 100 µM; viability at 100 µM (ASPC1 [24]): 96.4%; viability at 100 µM (MDA-MB-468 [25]): 102%; viability at 100 µM (SH-SY5Y [26]): 99.9%; viability at 100 µM (T47D [27]): 73.6%; viability at 100 µM (HT-29 [28]): 96.3%; viability at 100 µM (SW48 [29]): 95.3%; IC50 (NCI-H1299 [30]): > 100 µM; IC50 (CNE [31]): > 100 µM; IC50 (SW48 [32]): > 100 µM; viability at 100 µM (SK-BR-3 [33]): 93.1%; IC50 (ASPC1 [34]): > 100 µM; IC50 (MRC5): 60.2 µM; IC50 (SK-BR-3 [35]): > 100 µM; IC50 (MCF7 [36]): > 100 µM; viability at 100 µM [37]: 32.2%; viability at 100 µM (NCI-H1299 [38]): 92.7%
O=[N+]([O-])c1cc(C(F)(F)F)ccc1NC(CO)CO	> 100 µM	67.3%	89.5%	83.9%	57.9%	> 100 µM	> 100 µM	83.4%	108%	> 100 µM	92.9%	> 100 µM	> 100 µM	> 100 µM	> 100 µM	> 100 µM	57.4%	68.5%	102%	> 100 µM	IC50 (SW1990 [20]): > 100 µM; IC50 (A549 [21]): > 100 µM; viability at 100 µM (CNE [22]): 106%; IC50 [23]: > 100 µM; viability at 100 µM (ASPC1 [24]): 81.8%; viability at 100 µM (MDA-MB-468 [25]): 100%; viability at 100 µM (SH-SY5Y [26]): 84.9%; viability at 100 µM (T47D [27]): 68.6%; viability at 100 µM (HT-29 [28]): 95.2%; viability at 100 µM (SW48 [29]): 98.8%; IC50 (NCI-H1299 [30]): > 100 µM; IC50 (CNE [31]): > 100 µM; IC50 (SW48 [32]): > 100 µM; viability at 100 µM (SK-BR-3 [33]): 66.4%; IC50 (ASPC1 [34]): > 100 µM; IC50 (MRC5): > 100 µM; IC50 (SK-BR-3 [35]): > 100 µM; IC50 (MCF7 [36]): > 100 µM; viability at 100 µM [37]: 64.9%; viability at 100 µM (NCI-H1299 [38]): 91.3%
